Measured values taken from patent US20230190762A1, “STABLE VARENICLINE DOSAGE FORMS” (Handa Pharma, Inc., priority 2021, published 2023).

Columns and labels:
[1] = Nitrosamine test for API and finish product, UPLC-MS/MS; format: physicochemical; conditions: for API nitrosamine level (Nitro-P08) (based on varenicline base): initial level of API lot
Protocol: 4. Nitrosamine Test Method for API and Finish Product
UPLC-MS/MS, Thermo scientific; Orbitrap Exploris 120
4.2. Solution Preparations
4.2.2 Mobile phase A: Formic acid: Purified Water (0.1:100), transferred 500 mL purified water to 500 mL analysis bottle, then added 500 μL formic acid and well mixed. Ultrasonic Degassing for 5 min.
4.2.3 Mobile phase B: Formic acid: Methanol (0.1:100), transferred 500 mL methanol to 500 mL analysis bottle, then added 500 μL formic acid and well mixed. Ultrasonic degassing for 5 min.
4.2.4 Reference stock solution I: Weight about 2.0 mg of 8-nitroso-7,8,9,10-tetrahydro-6H-6,10-methanoazepino[4,5-g]quinoxaline (Nitro-P08) into a 100 mL volumetric flask. Dissolve with methanol and dilute to volume and well mixed (about 20 μg/mL of Nitro-P08).
4.2.5 Reference stock solution II: Accurately pipet 5.0 mL of reference stock solution I into a 200-mL volumetric flask, dilute with methanol to volume and well mixed (about 500 ng/mL of Nitro-P08).
4.2.6 Reference stock solution III: Accurately pipet 5.0 mL of reference stock solution II into a 50-mL volumetric flask, dilute with methanol to volume and well mixed (about 50 ng/mL of Nitro-P08).
4.2.7 Reference solution: Accurately pipet 1.0 mL of reference stock solution III into a 50-mL volumetric flask, dilute with methanol to volume and well mixed.
Weighted about 25 mg of sample into a 50 mL volumetric flask. Diluted to volume with Diluent and well mixed. Prepared 2 duplication in parallel.
4.2.8.2 for Finish Product
Grind 10 tablets for 1 mg strength or 20 tablets for 0.5 mg strength, accurately weigh and transfer about 0.61 g of powder (equivalent to about 5 mg of Varenicline Tartrate API) into a 50 mL stoppered test tube, add 10 mL of methanol, vortex for 1 min and treat with ultrasound for 20 min. Place it still for 10 min, take an appropriate amount of solution for centrifugation (10000 rpm, 10 min), and then take the supernatant as the test solution. Prepare in duplicates. (Note: Grind the tablets and weigh right before the test sample solution preparation.)

[2] = Particle size, Mastersizer 3000 laser particle size analyzer, wet method; format: physicochemical
Protocol: The particle size of five representative lots of varenicline tartrate was determined and the results are as follows:
Mastersizer 3000 Laser Particle Size Analyzer and Electronic Analytical Balance
3.3.1 Preparation N-hexane solution of 0.1% span 85.
3.3.2 Weigh about 0.04 g sample and add into 5 mL dispersant, and ultrasonic for 10 min.
3.4.1 Cleaning instrument.
3.4.2 The above parameters are set,
3.4.3 Reconfirm the inspection parameters.
3.4.4 Background checks are required.
3.4.5 Samples tested and each for 3 times.

[3] = particle size of varenicline tartrate lot, listed as 202012001
[4] = particle size of varenicline tartrate lot, listed as 202010004
[5] = particle size of varenicline tartrate lot
[6] = API lot of compatibility study, 80 mesh
[7] = particle size of varenicline tartrate lot, listed as 202012002

Varenicline Tartrate [Lot 202101002]
Nitroso impurity [drawing 4] in bulk drug substance (API) ([1]; initial): 1.6 ppm
Nitroso impurity [drawing 5] in bulk drug substance (API) ([1]; initial): <LOQ (0.0289 ppm)

Varenicline Tartrate [Lot 202012001]
D10 [2, 3]: 1.547 μm
D50 [2, 3]: 4.088 μm
D90 [2, 3]: 8.554 μm

Varenicline Tartrate [Lot 202010004]
D10 [2, 4]: 2.339 μm
D50 [2, 4]: 6.354 μm
D90 [2, 4]: 11.802 μm

Varenicline Tartrate [Lot 201810001]
Nitroso impurity [drawing 4] in bulk drug substance (API) ([1]; <30° C., >[…]): 7.1 ppm
Nitroso impurity [drawing 5] in bulk drug substance (API) ([1]; <30° C., >[…]): <LOQ (0.0289 ppm)
D10 [2, 5]: 0.858 μm
D50 [2, 5]: 2.600 μm
D90 [2, 5]: 9.660 μm

Varenicline Tartrate [Lot 201702001]
D10 [2, 6]: 1.1 µm
D50 [2, 6]: 3.3 µm
D90 [2, 6]: 11 µm

Varenicline Tartrate [Lot 6A]
API nitrosamine level (Nitro-P08) (based on varenicline base) [1]: 7.35 ppm

Varenicline Tartrate [Lot 201811001]
Nitroso impurity [drawing 4] in bulk drug substance (API) ([1]; <30° C., >[…]): 18.3 ppm
Nitroso impurity [drawing 5] in bulk drug substance (API) ([1]; <30° C., >[…]): <LOQ (0.0289 ppm)
D10 [2, 5]: 0.878 μm
D50 [2, 5]: 2.630 μm
D90 [2, 5]: 32.700 μm

Varenicline Tartrate [Lot 202012002]
API nitrosamine level (Nitro-P08) (based on varenicline base) ([1]; listed as 6B): 1.8 ppm
D10 [2, 7]: 2.269 μm
D50 [2, 7]: 5.708 μm
D90 [2, 7]: 11.288 μm
